Data reported in US9227971B2, “Pyrazolo[1,5-a]pyrimidine compounds as mTOR inhibitors” (Merck Sharp & Dohme Corp., priority 2010, dated 2016).
Like-named read-outs stand apart in the source and are kept apart here.

Assays:
[1] = test system: phosphorylated AKT Ser473 (pAKT S473), mTORC2 activity, PC3 cells; assay: mTOR target engagement assay, immunofluorescent cell-based, pAKT S473 readout (mTORC2 activity); settings: PC3 cells
In short: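 After blocking, cells were stained overnight at 4 °C with anti-pAKT S473 antibody, then a fluorescent secondary; inhibition was read as reduced fluorescence intensity.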

[2] = test system: phosphorylated 4E-BP1 Thr37/46 (p4E-BP1 Thr37/46), mTORC1 activity, PC3 cells; assay: mTOR target engagement assay, immunofluorescent cell-based, p4E-BP1 Thr37/46 readout (mTORC1 activity); settings: PC3 cells, read-out: p4E-BP1 Thr37/46 IC50
In short: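 PTEN-mutant PC3 prostate cells were treated with serially diluted compound in 5% FBS F12 medium (0.25% DMSO) for ninety minutes at 37° C, glyoxal-fixed, then immunostained overnight at 4° C for p4E-BP1 Thr37/46 with an Alexa Fluor 488 secondary. IC50 came from four-parameter fits of fluorescence, DMSO-only wells defining 100%.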

## CS(=O)(=O)c1c([C@@H]2C[C@H]3CC[C@@H](C2)N3C(=O)c2nnc[nH]2)nc2c(-c3ccc(-c4cccc(F)c4)nc3)cnn2c1N [Compound 3.46, ((1R,3s,5S)-3-(7-amino-3-(6-(3-fluorophenyl)pyridin-3-yl)-6-(methylsulfonyl)pyrazolo[1,5-a]pyrimidin-5-yl)-8-azabicyclo[3.2.1]octan-8-yl)(4H-1,2,4-triazol-3-yl)methanone]
[1]; Homo sapiens, PC-3, Table 3-1
  IC50: 1 to 100 nM
[2]; Homo sapiens, PC-3, Table 3-1
  IC50: 1 to 100 nM

## CS(=O)(=O)c1c([C@@H]2C[C@H]3CC[C@@H](C2)N3C(=O)c2nnc[nH]2)nc2c(-c3ccc(-c4cccc(F)c4F)nc3)cnn2c1N [Compound 3.47, ((1R,3s,5S)-3-(7-amino-3-(6-(2,3-difluorophenyl)pyridin-3-yl)-6-(methylsulfonyl)pyazolo[1,5-a]pyrimidin-5-yl)-8-azabicyclo[3.2.1]octan-8-yl)(4H-1,2,4-triazol-3-yl)methanone]
[1]; Homo sapiens, PC-3, Table 3-1
  IC50: 1 to 100 nM
[2]; Homo sapiens, PC-3, Table 3-1
  IC50: 1 to 100 nM

## CS(=O)(=O)c1c([C@@H]2C[C@H]3CC[C@@H](C2)N3C(=O)c2nnc[nH]2)nc2c(-c3ccc(-c4ncccc4F)nc3)cnn2c1N [Compound 3.48, ((1R,3s,5S)-3-(7-amino-3-(3′-fluoro-2,2′-bipyridin-5-yl)-6-(methylsulfonyl)pyrazolo[1,5-a]pyrimidin-5-yl)-8-azabicyclo[3.2.1]octan-8-yl)(4H-1,2,4-triazol-3-yl)methanone]
[1]; Homo sapiens, PC-3, Table 3-1
  IC50: 1 to 100 nM
[2]; Homo sapiens, PC-3, Table 3-1
  IC50: 1 to 100 nM

## COc1c(F)cc(-c2ccc(-c3cnn4c(N)c(S(C)(=O)=O)c([C@@H]5C[C@H]6CC[C@@H](C5)N6C(=O)c5nnc[nH]5)nc34)cn2)cc1F [Compound 3.49, ((1R,3s,5S)-3-(7-amino-3-(6-(3,5-difluoro-4-methoxyphenyl)pyridin-3-yl)-6-(methylsulfonyl)pyrazolo[1,5-a]pyrimidin-5-yl)-8-azabicyclo[3.2.1]octan-8-yl)(4H-1,2,4-triazol-3-yl)methanone]
[1]; Homo sapiens, PC-3, Table 3-1
  IC50: 100 to 1000 nM
[2]; Homo sapiens, PC-3, Table 3-1
  IC50: 100 to 1000 nM

## COc1ccc(-c2ccc(-c3cnn4c(N)c(S(C)(=O)=O)c([C@@H]5C[C@H]6CC[C@@H](C5)N6C(=O)c5nnc[nH]5)nc34)cn2)cc1C [Compound 3.50, ((1R,3s,5S)-3-(7-amino-3-(6-(4-methoxy-3-methylphenyl)pyridin-3-yl)-6-(methylsulfonyl)pyrazolo[1,5-a]pyrimidin-5-yl)-8-azabicyclo[3.2.1]octan-8-yl)(4H-1,2,4-triazol-3-yl)methanone]
[1]; Homo sapiens, PC-3, Table 3-1
  IC50: 1 to 100 nM
[2]; Homo sapiens, PC-3, Table 3-1
  IC50: 1 to 100 nM

## COc1ccc(-c2ccc(-c3cnn4c(N)c(S(C)(=O)=O)c([C@@H]5C[C@H]6CC[C@@H](C5)N6C(=O)c5nnc[nH]5)nc34)cn2)cc1Cl [Compound 3.51, ((1R,3s,5S)-3-(7-amino-3-(6-(3-chloro-4-methoxyphenyl)pyridin-3-yl)-6-(methylsulfonyl)pyrazolo[1,5-a]pyrimidin-5-yl)-8-azabicyclo[3.2.1]octan-8-yl)(4H-1,2,4-triazol-3-yl)methanone]
[1]; Homo sapiens, PC-3, Table 3-1
  IC50: 1 to 100 nM
[2]; Homo sapiens, PC-3, Table 3-1
  IC50: 1 to 100 nM

## CS(=O)(=O)c1c([C@@H]2C[C@H]3CC[C@@H](C2)N3C(=O)c2nnc[nH]2)nc2c(-c3ccc(-c4ccc5c(c4)OCO5)nc3)cnn2c1N [Compound 3.52, ((1R,3s,5S)-3-(7-amino-3-(6-(benzo[d][1,3]dioxol-5-yl)pyridin-3-yl)-6-(methylsulfonyl)pyrazolo[1,5-a]pyrimidin-5-yl)-8-azabicyclo[3.2.1]octan-8-yl)(4H-1,2,4-triazol-3-yl)methanone]
[1]; Homo sapiens, PC-3, Table 3-1
  IC50: 1 to 100 nM
[2]; Homo sapiens, PC-3, Table 3-1
  IC50: 1 to 100 nM

## CS(=O)(=O)c1c([C@@H]2C[C@H]3CC[C@@H](C2)N3C(=O)c2nnc[nH]2)nc2c(-c3ccc(-c4ccc5c(c4)OC(F)(F)O5)nc3)cnn2c1N [Compound 3.53, ((1R,3s,5S)-3-(7-amino-3-(6-(2,2-difluorobenzo[d][1,3]dioxol-5-yl)pyridin-3-yl)-6-(methylsulfonyl)pyrazolo[1,5-a]pyrimidin-5-yl)-8-azabicyclo[3.2.1]octan-8-yl)(4H-1,2,4-triazol-3-yl)methanone]
[1]; Homo sapiens, PC-3, Table 3-1
  IC50: 100 to 1000 nM
[2]; Homo sapiens, PC-3, Table 3-1
  IC50: 1000 to 10000 nM

## COc1ccc(-c2ccc(-c3cnn4c(N)c(S(C)(=O)=O)c([C@@H]5C[C@H]6CC[C@@H](C5)N6C(=O)c5nnc[nH]5)nc34)cn2)c(F)c1F [Compound 3.54, ((1R,3s,5S)-3-(7-amino-3-(6-(2,3-difluoro-4-methoxyphenyl)pyridin-3-yl)-6-(methylsulfonyl)pyrazolo[1,5-a]pyrimidin-5-yl)-8-azabicyclo[3.2.1]octan-8-yl)(4H-1,2,4-triazol-3-yl)methanone]
[1]; Homo sapiens, PC-3, Table 3-1
  IC50: 1 to 100 nM
[2]; Homo sapiens, PC-3, Table 3-1
  IC50: 1 to 100 nM

## CS(=O)(=O)c1c([C@@H]2C[C@H]3CC[C@@H](C2)N3C(=O)c2nnc[nH]2)nc2c(-c3ccc(-c4ccc(OC(F)F)cc4)nc3)cnn2c1N [Compound 3.55, ((1R,3s,5S)-3-(7-amino-3-(6-(4-(difluoromethoxy)phenyl)pyridin-3-yl)-6-(methylsulfonyl)pyrazolo[1,5-a]pyrimidin-5-yl)-8-azabicyclo[3.2.1]octan-8-yl)(4H-1,2,4-triazol-3-yl)methanone]
[1]; Homo sapiens, PC-3, Table 3-1
  IC50: 1 to 100 nM
[2]; Homo sapiens, PC-3, Table 3-1
  IC50: 1 to 100 nM

## COCCOc1ccc(-c2ccc(-c3cnn4c(N)c(S(C)(=O)=O)c([C@@H]5C[C@H]6CC[C@@H](C5)N6C(=O)c5nnc[nH]5)nc34)cn2)cc1 [Compound 3.56, ((1R,3s,5S)-3-(7-amino-3-(6-(4-(2-methoxyethoxy)phenyl)pyridin-3-yl)-6-(methylsulfonyl)pyrazolo[1,5-a]pyrimidin-5-yl)-8-azabicyclo[3.2.1]octan-8-yl)(4H-1,2,4-triazol-3-yl)methanone]
[1]; Homo sapiens, PC-3, Table 3-1
  IC50: 100 to 1000 nM
[2]; Homo sapiens, PC-3, Table 3-1
  IC50: 100 to 1000 nM

## Cn1cc2cc(-c3ccc(-c4cnn5c(N)c(S(C)(=O)=O)c([C@@H]6C[C@H]7CC[C@@H](C6)N7C(=O)c6nnc[nH]6)nc45)cn3)ccc2n1 [Compound 3.57, ((1R,3s,5S)-3-(7-amino-3-(6-(2-methyl-2H-indazol-5-yl)pyridin-3-yl)-6-(methylsulfonyl)pyrazolo[1,5-a]pyrimidin-5-yl)-8-azabicyclo[3.2.1]octan-8-yl)(4H-1,2,4-triazol-3-yl)methanone]
[1]; Table 3-1
  IC50: 1 to 100 nM
[2]; Table 3-1
  IC50: 1 to 100 nM

## COc1ncc(-c2ccc(-c3cnn4c(N)c(S(C)(=O)=O)c([C@@H]5C[C@H]6CC[C@@H](C5)N6C(=O)c5nnc[nH]5)nc34)cn2)cn1 [Compound 3.58, ((1R,3s,5S)-3-(7-amino-3-(6-(2-methoxypyrimidin-5-yl)pyridin-3-yl)-6-(methylsulfonyl)pyrazolo[1,5-a]pyrimidin-5-yl)-8-azabicyclo[3.2.1]octan-8-yl)(4H-1,2,4-triazol-3-yl)methanone]
[1]; Table 3-1
  IC50: 1000 to 10000 nM
[2]; Table 3-1
  IC50: 1000 to 10000 nM

## COc1cc(F)c(-c2ccc(-c3cnn4c(N)c(S(C)(=O)=O)c([C@@H]5C[C@H]6CC[C@@H](C5)N6C(=O)c5nnc[nH]5)nc34)cn2)cc1F [Compound 3.59, ((1R,3s,5S)-3-(7-amino-3-(6-(2,5-difluoro-4-methoxyphenyl)pyridin-3-yl)-6-(methylsulfonyl)pyrazolo[1,5-a]pyrimidin-5-yl)-8-azabicyclo[3.2.1]octan-8-yl)(4H-1,2,4-triazol-3-yl)methanone]
[1]; Homo sapiens, PC-3, Table 3-1
  IC50: 1 to 100 nM
[2]; Homo sapiens, PC-3, Table 3-1
  IC50: 1 to 100 nM

## CCOc1ccc(-c2ccc(-c3cnn4c(N)c(S(C)(=O)=O)c([C@@H]5C[C@H]6CC[C@@H](C5)N6C(=O)c5nnc[nH]5)nc34)cn2)cc1 [Compound 3.60, ((1R,3s,5S)-3-(7-amino-3-(6-(4-ethoxyphenyl)pyridin-3-yl)-6-(methylsulfonyl)pyrazolo[1,5-a]pyrimidin-5-yl)-8-azabicyclo[3.2.1]octan-8-yl)(4H-1,2,4-triazol-3-yl)methanone]
[1]; Homo sapiens, PC-3, Table 3-1
  IC50: 1 to 100 nM
[2]; Homo sapiens, PC-3, Table 3-1
  IC50: 1 to 100 nM

## CS(=O)(=O)c1c([C@@H]2C[C@H]3CC[C@@H](C2)N3C(=O)c2nnc[nH]2)nc2c(-c3ccc(-c4ccc(OC5CC5)cc4)nc3)cnn2c1N [Compound 3.61, ((1R,3s,5S)-3-(7-amino-3-(6-(4-cyclopropoxyphenyl)pyridin-3-yl)-6-(methylsulfonyl)pyrazolo[1,5-a]pyrimidin-5-yl)-8-azabicyclo[3.2.1]octan-8-yl)(4H-1,2,4-triazol-3-yl)methanone]
[1]; Homo sapiens, PC-3, Table 3-1
  IC50: 100 to 1000 nM
[2]; Homo sapiens, PC-3, Table 3-1
  IC50: 100 to 1000 nM

## [2H]C([2H])([2H])Oc1ccc(-c2ccc(-c3ccn4c(N)c(S(C)(=O)=O)c([C@@H]5C[C@H]6CC[C@@H](C5)N6C(=O)c5nnc[nH]5)nc34)cn2)cc1 [Compound 3.62, ((1R,3s,5S)-3-(7-amino-3-(6-(4-methoxy-(D3)-phenyl)pyridin-3-yl)-6-(methylsulfonyl)pyrazolo[1,5-a]pyrimidin-5-yl)-8-azabicyclo[3.2.1]octan-8-yl)(4H-1,2,4-triazol-3-yl)methanone]
[1]; Homo sapiens, PC-3, Table 3-1
  IC50: 1 to 100 nM
[2]; Homo sapiens, PC-3, Table 3-1
  IC50: 1 to 100 nM

## CS(=O)(=O)c1c([C@@H]2C[C@H]3CC[C@@H](C2)N3C(=O)c2nnc[nH]2)nc2c(-c3ccc(-c4ccc(OCF)cc4)nc3)cnn2c1N [Compound 3.63, ((1R,3s,5S)-3-(7-amino-3-(6-(4-(fluoromethoxy)phenyl)pyridin-3-yl)-6-(methylsulfonyl)pyrazolo[1,5-a]pyrimidin-5-yl)-8-azabicyclo[3.2.1]octan-8-yl)(4H-1,2,4-triazol-3-yl)methanone]
[1]; Table 3-1
  IC50: 1 to 100 nM
[2]; Table 3-1
  IC50: 1 to 100 nM

## CS(=O)(=O)c1c([C@@H]2C[C@H]3CC[C@@H](C2)N3C(=O)c2nnc[nH]2)nc2c(-c3ccc(-c4ccncc4)nc3)cnn2c1N [Compound 3.64, ((1R,3s,5S)-3-(3-(2,4′-bipyridin-5-yl)-7-amino-6-(methylsulfonyl)pyrazolo[1,5-a]pyrimidin-5-yl)-8-azabicyclo[3.2.1]octan-8-yl)(4H-1,2,4-triazol-3-yl)methanone]
[1]; Table 3-1
  IC50: 1000 to 10000 nM
[2]; Table 3-1
  IC50: 1000 to 10000 nM
